The test relates to P. falciparum 3D7 growth, pLDH absorbance. As to the kind of experiment: P. falciparum 3D7 growth inhibition, dose response, strain 3D7 (AID 2305).

For orientation: IC50 means the midpoint of a concentration-inhibition curve. A low value points to inhibition by little substance. In the case of `CCc1nc(N)nc(N)c1-c1ccc2c(c1)CCCC2`, the IC50 was 200 nM.
For `FC(F)(F)c1ccc2nc(-c3ccc(-c4cccc(CNCc5ccccc5)c4)cc3)[nH]c2c1`, the IC50 stood at 220 nM.
Regarding `COc1ccc(-c2nc3c(N)nc(N)nc3nc2-c2ccccc2Cl)cc1` (tested in a mixture with another compound), the IC50 came out at 550 nM.
The compound `CN1CCCN(Cc2cccc(-c3ccc(NC(=O)c4cccc(Cl)c4)cc3)c2)CC1` gave a concentration for half-maximal inhibition (IC50) of 930 nM.
In the case of `Cc1cc(NC(=O)Nc2ccc(Oc3ccccc3)cc2)c2ccccc2n1`, the IC50 worked out at 840 nM.
`COc1ccc(CN2CCN(CCOC(c3ccccc3)c3ccccc3)CC2)c(O)c1`: the IC50 turned out to be 1190 nM.
In the case of `Cc1ccc(NC(=O)Nc2ccc(Cl)c(C(F)(F)F)c2)cc1-c1ccc(C(=O)NCCN2CCOCC2)cc1` it was 810 nM; in that of `CN1CCN(c2ccc(-c3cccc(NC(=O)c4ccc5ccccc5c4)c3)nn2)CC1`, 380 nM; in that of `CCCCCCCCn1c2c(c(=N)c3c1CCC3)CCC2`, 220 nM.
Compound `Cc1ccc2nc(C)cc(NN=Cc3ccc([N+](=O)[O-])cc3)c2c1` had an IC50 of 790 nM.
Compound `CCc1cc(Cc2cnc(N)nc2N)cc(CC)c1OC` returned an IC50 of 1130 nM.
`CCCc1ccc(S(=O)(=O)Nc2ccc3c(c2)CCC3)cc1` showed an IC50 of 880 nM.
In the case of `O=C(Cn1c(=O)cnc2ccccc21)Nc1cccc(C(=O)Nc2cccc(C(F)(F)F)c2)c1` it was 280 nM; in that of `O=C(NCCN1CCCC1)c1ccc(-c2ccc(-c3nc4ccc(C(F)(F)F)cc4[nH]3)s2)cc1`, 750 nM.
With `N#Cc1cccc([C@H](O)[C@@H]2CN(CCC3CCCCC3)CC[C@@]2(O)c2ccccc2)c1`, the IC50 worked out at 130 nM.
On to `CCCCN(CCCC)Cc1cc(Nc2ccnc3cc(Cl)ccc23)ccc1O`, for which the concentration for half-maximal inhibition (IC50) stood at 20 nM.
In the case of `CO/C(=C\C=C\c1cc2cc(Cl)c(Cl)cc2[nH]1)C(=O)NC1C[C@H]2CC[C@@H](C1)N2C` (stereo not given in full) it was 1030 nM; in that of `CCc1cn2c3c(cc(C(=O)N[C@@H](Cc4cc(F)cc(F)c4)[C@H](O)CNC4CCOCC4)cc13)N(C)S(=O)(=O)CC2`, 30 nM.
With `CCN(c1ccc(F)cc1)S(=O)(=O)c1cc(Br)cc2c1N(C(=O)C1CC1)CC2` the figure was 940 nM; with `CC(=O)Oc1ccc(C(=O)Oc2ccccc2C#CC#N)cc1OC(C)=O`, 320 nM; with `CCC(CC)(Cc1ccccc1)NC(=O)[C@H](CC(C)C)Nc1ccc(C#N)c2ccccc12`, 910 nM.
In the case of `Cc1ccc(NC(=O)c2cn(-c3ccccc3)nc2-c2ccc(F)cc2)cc1[N+](=O)[O-]` it was 1000 nM.
In turn, `CCN(CC)CCN(Cc1ccc(-c2ccc(C(F)(F)F)cc2)cc1)C(=O)Cn1c(CCc2cccc(F)c2F)nc(=O)c2cccnc21` gave an IC50 of 730 nM.
In the case of `O=[N+]([O-])c1cccc(CNCC2CCN(Cc3ccc(O)cc3)CC2)c1` it was 670 nM; in that of `CN(C)CCOc1ccc(-c2cc(-c3ccc(Cl)c(O)c3)c(-c3ccncc3)[nH]2)cc1`, 580 nM; in that of `COc1cccc(C=CC(=O)NC2CCC(CN3CCC(c4c[nH]c5ccccc45)CC3)CC2)c1OC` (stereo not given), 740 nM.
In the case of `Cc1cccc2[nH]c(-c3cccc(-c4cccc(NC(=O)c5ccc(C(N)=O)cc5)c4)c3)nc12` it was 320 nM; in that of `O=C(/C=C/c1ccc(Cl)c(Cl)c1)N1CCC(CN2CCC(Cc3cc4ccccc4[nH]3)CC2)CC1`, 630 nM; in that of `Cn1nccc1C(=O)NCCNCc1cccc(-c2csc(-c3nc4ccccc4[nH]3)c2)c1`, 840 nM.
As to `Nc1nccc2ccc(-c3ccc(NC(=O)Nc4cc(C(F)(F)F)ccc4F)cc3)cc12`, the IC50 was 90 nM.
The compound `O=C(Nc1cccc(F)c1)N(Cc1ccc(-c2ccc(CN3CCNCC3)cc2)cc1)C1CCN(Cc2ccccc2)CC1` yielded an IC50 of 770 nM.
Compound `Cc1cccc2[nH]c(-c3ccc(-c4cccc(CN5CCN(c6ccncc6)CC5)c4)cc3)nc12` displayed an IC50 of 120 nM.
In the case of `O=C(COc1ccc(Cl)c(Cl)c1)NCCCCCN1CCCN(C(=O)Nc2ccc(Cl)c(Cl)c2)CC1`, the half-maximal inhibitory concentration (IC50) was determined as 1730 nM.
As for `CC1CN(Cc2ccccc2)CCN1c1ccc(NC(=O)c2ccc(F)cc2)cc1` (stereo not given), the IC50 stood at 1010 nM.
In the case of `Cc1cc(C)n(-c2nc(Nc3cccc(C(F)(F)F)c3)nc(-n3nc(C)cc3C)n2)n1` it was 360 nM; in that of `CCCCCc1ccc(N2C(N)=NC(N)=NC2(C)C)cc1`, 130 nM.
In the case of `COc1ccc(CNCc2ccccc2)cc1-c1ccc(S(=O)(=O)NCCN2CCCC2)s1` it was 670 nM; in that of `O=C(Nc1cc2cc(-c3ccc(CN4CCCCC4)cc3)ccc2n2cnnc12)NC1CCCC1`, 1520 nM.
`COc1ccc2nccc(N3CCC(SCCNCc4cc5c(cn4)OCCO5)C3)c2n1` (stereo not given) displayed an IC50 of 770 nM.
With `O=C(Nc1cccc(CN2CCCN(Cc3cccnc3)CC2)c1)c1cc2ccccc2s1` the figure was 1470 nM.
With `c1ccc(-n2ncc(CNCc3ccc(-c4cccc(-c5nc6ccccc6[nH]5)c4)cc3)n2)cc1` the figure was 1230 nM; with `C=CCc1cc(C2CCN(CCCCNC(=O)c3ccc(-c4ccc(C#N)cc4)cc3)CC2)c(OCC(N)=O)c2c1CCCC2`, 800 nM; with `CC(=O)c1sc(NC(=O)Nc2ccc(C)cc2C)nc1C`, 910 nM.
With `C=CC[C@H](C[C@H](O)[C@H](Cc1ccccc1)NC(=O)c1ccc(-c2cccnn2)cc1)C(=O)NC1CCCCC1` the figure was 1190 nM.
Compound `O=C(/C=C/c1ccc(Cl)c(Cl)c1)N1CCC(CN2CCC(c3cn(CC(=O)N4CCCCC4)c4ccccc34)CC2)CC1` came in with an IC50 of 750 nM.
In the case of `CC(CCCC(=O)Nc1ccc(CC(C)NCCc2cccc(Cl)c2)cc1)NCCc1cccc(Cl)c1` (stereo not given) it was 620 nM; in that of `COc1ccccc1N1CCN(Cc2cc(C(C)C)c(C)cc2O)CC1`, 570 nM; in that of `CN(C)CCNC(=O)c1cccc(-c2cnc3ccc(NCc4ccc(Cl)c(Cl)c4)nn23)c1`, 700 nM.
`O=C1NC(=S)NC1=CC=Cc1ccc([N+](=O)[O-])o1` displayed an IC50 of 1070 nM.
With `COC(=O)CN(C(=O)/C=C/c1ccc(Cl)c(Cl)c1)C1CCC(CN2CCC(c3c[nH]c4ccccc34)CC2)CC1` (stereo not given) the figure was 510 nM; with `CC(C)(C(=O)Nc1ccc(N2CCC3(CCCN(CC4CC4)C3)CC2)c(Cl)c1)c1cccc(C(F)(F)F)c1`, 2000 nM; with `CN1CCCN(Cc2ccc(-c3cccc(NC(=O)c4ccc(F)cc4)c3)cc2)CC1`, 1090 nM.
Compound `Cc1[nH]c2c(NCc3ccc(F)cc3)nccc2c1C` showed an IC50 of 1360 nM.
In the case of `CC(=O)Nc1ccc(CN2CCC(N(C)c3ccc(NC(=O)c4cccc(C)c4)cc3)CC2)cc1` it was 990 nM; in that of `OC(CNc1ccnc(Nc2ccc(Cl)cc2)n1)c1ccc(C(F)(F)F)cc1` (stereo not given), 770 nM; in that of `CCCCCCc1cc(Oc2c(I)cc(C[C@H](N)C(=O)O)cc2I)ccc1O`, 910 nM.
In the case of `CC1CCN(C(=O)C(Cc2c[nH]c3ccccc23)NS(=O)(=O)c2ccc(Cl)cc2)CC1` (stereo not given) it was 720 nM.
In turn, `CN(CCCc1c[nH]c2ccccc12)CC1CCN(C(=O)/C=C/c2ccc(Cl)c(Cl)c2)CC1` came in with an IC50 of 750 nM.
In the case of `CC(C)CC(=O)N1CCNC[C@@H]1C(=O)NCCSCc1c(F)cccc1Cl`, the IC50 worked out at 1200 nM.
The compound `Cc1[nH]c(C)c(C(F)(F)F)c(=O)c1-c1ccc(Oc2ccc(OC(F)(F)F)cc2)cc1` displayed a concentration for half-maximal inhibition (IC50) of 170 nM.
In the case of `CCCc1cc(NC2CCN(C)CC2)nc(Nc2cccc(OC)c2)n1` it was 770 nM.
For `CN1CCN(c2cccc(-c3nnc(-c4ccc(OCC(=O)NCc5cccc(C(F)(F)F)c5)c([N+](=O)[O-])c4)o3)c2)CC1`, the IC50 was found to be 960 nM.
The compound `COc1ccccc1NC(=O)Nc1ccc(-c2cccc(-c3nc4ccccc4[nH]3)c2)cc1` displayed an IC50 of 640 nM.
The compound `Nc1ncc(-c2cccc(OCc3ccccc3)c2)cc1-c1nnc2ccc(Cl)nn12` had a half-maximal inhibitory concentration (IC50) of 1430 nM.
In the case of `Cc1noc(C)c1-c1ccc2c(Nc3ccccc3C(C)(C)C)c(C(=O)NCc3ccc(OC(C)C)cc3)cnc2c1` it was 910 nM; in that of `COc1ccc(NC(=O)[C@H](CC(C)C)Nc2cc(C)nc(Nc3ccccc3)n2)cc1`, 870 nM; in that of `COc1ccc(NC(=O)c2ccc(Br)c(C)c2)cc1N1CCN(Cc2ccccc2)CC1`, 920 nM.
In the case of `Cc1cc(-c2ncc[nH]2)ccc1-c1ccc(C(=O)N2CCc3cc4c(cc32)C2(CCN(C)CC2)CO4)cc1` it was 800 nM.
In the case of `CCN(CC)CCN1C(=O)C(O)(c2ccccc2Cl)c2c1cc(C#N)cc2C(F)(F)F` (stereo not given) it was 950 nM; in that of `Oc1cccc(Nc2ccnc3cc(-c4ccncc4)ccc23)c1`, 1050 nM; in that of `c1csc(-c2nc(N3CCCC3)ncc2-c2ccsc2)n1`, 210 nM.
The compound `Cc1cc(N[C@@H](CC(C)C)C(=O)NCCOc2ccccc2)nc(NCCOc2ccccc2)n1` showed an IC50 of 1490 nM.
In the case of `Cc1cc(Nc2ccc(OCc3ccccc3Cl)cc2)c2cc(Cl)ccc2n1` it was 430 nM; in that of `CC[C@H](C)CNC(=O)c1cncc(-c2cccc(CN(C)C3CCN(C)CC3)c2)c1`, 780 nM; in that of `CCN1CCN(Cc2ccc(NC(=O)c3cc4ccc5cccnc5c4[nH]3)cc2)CC1`, 850 nM.
Consider `COc1c(CNCCCCCCNCc2c(OC)c(OC)c3ccccc3c2OC)c(OC)c2ccccc2c1OC`, for which the IC50 is 960 nM.
With `COc1cc(C(=O)N2CCN(C(C)C)CC2)ccc1CN(C)CCCN1CCN(c2cccc(Cl)c2Cl)CC1`, the IC50 was found to be 780 nM.
With `O=C(NC1CCN(CC2(c3ccc(Cl)cc3)CCC2)CC1)c1ccn[nH]1` the figure was 420 nM; with `CCc1cc2c3c(N)nc(N)nc3ccc2n1C(C)(C)C`, 10 nM; with `O=C(NCCc1ccc(Cl)c(Cl)c1)[C@@H]1CCCN1C(=O)c1ccc(O)c(-c2ccc(Cl)c(Cl)c2)c1`, 550 nM.
With `COc1ccc2nccc([C@@H](O)CN3CCC(NCc4cc5c(Cl)cccc5[nH]4)CC3)c2c1` the figure was 160 nM; with `COc1ccc(C(C(=O)NC2CCN(C[C@H](O)c3ccnc4ccc(OC)cc34)CC2)N2CCN(c3ccc(F)cc3)CC2)cc1` (stereo not given in full), 210 nM.
In the case of `Cc1nnc2sc(-c3cccc(NC(=O)c4ccc(N5CCCCC5)c([N+](=O)[O-])c4)c3)nn12` it was 1300 nM; in that of `CCCCCOc1ccc(C(O)C(CCC(CN2CCCCCC2)C(O)c2ccc(OCCCCC)cc2)CN2CCCCCC2)cc1` (stereo not given), 770 nM; in that of `CCCCNC(=O)C(C)NC(=O)c1ccc(O)c(-c2ccc(Cl)c(Cl)c2)c1` (stereo not given), 820 nM.
